Key:
[1] = Cytotoxicity against human 786-0 cells assessed as growth inhibition after 48 hrs by SRB assay; type: functional; details: 786-0, 48 h
[2] = Cytotoxicity against human SK-MEL-28 cells assessed as growth inhibition after 48 hrs by SRB assay; type: functional; details: SK-MEL-28, 48 h
[3] = Cytotoxicity against human A549 cells assessed as growth inhibition after 48 hrs by SRB assay; type: functional; details: A549, 48 h
[4] = Cytotoxicity against human MOLT4 cells assessed as growth inhibition after 48 hrs by SRB assay; type: functional; details: MOLT-4, 48 h
[5] = Cytotoxicity against human OVCAR5 cells assessed as growth inhibition after 48 hrs by SRB assay; type: functional; details: OVCAR-5, 48 h
[6] = Cytotoxicity against human UACC62 cells assessed as growth inhibition after 48 hrs by SRB assay; type: functional; details: UACC-62, 48 h
[7] = Cytotoxicity against human MDA-MB-468 cells assessed as growth inhibition after 48 hrs by SRB assay; type: functional; details: MDA-MB-468, 48 h
[8] = Cytotoxicity against human ACHN cells assessed as growth inhibition after 48 hrs by SRB assay; type: functional
[9] = Cytotoxicity against human SN12C cells assessed as growth inhibition at 10 uM after 48 hrs by SRB assay relative to control; type: functional; details: read-out: GI
[10] = Cytotoxicity against human HCC2998 cells assessed as growth inhibition after 48 hrs by SRB assay; type: functional; details: HCC 2998, 48 h
[11] = Cytotoxicity against human SR cells assessed as growth inhibition after 48 hrs by SRB assay; type: functional
[12] = Cytotoxicity against human HCT116 cells assessed as growth inhibition after 48 hrs by SRB assay; type: functional; details: HCT-116, 48 h
[13] = Cytotoxicity against human EKVX cells assessed as growth inhibition after 48 hrs by SRB assay; type: functional
[14] = Cytotoxicity against human K562 cells assessed as growth inhibition after 48 hrs by SRB assay; type: functional; details: K562, 48 h
[15] = Cytotoxicity against human SNB75 cells assessed as growth inhibition after 48 hrs by SRB assay; type: functional; details: SNB-75, 48 h
[16] = Cytotoxicity against human CCRF-CEM cells assessed as growth inhibition after 48 hrs by SRB assay; type: functional
[17] = Cytotoxicity against human KM12 cells assessed as growth inhibition after 48 hrs by SRB assay; type: functional; details: KM12, 48 h
[18] = Cytotoxicity against human Hs 578T cells assessed as growth inhibition after 48 hrs by SRB assay; type: functional
[19] = Cytotoxicity against human COLO205 cells assessed as growth inhibition after 48 hrs by SRB assay; type: functional; details: COLO 205, 48 h
[20] = Cytotoxicity against human NCI-H522 cells assessed as growth inhibition after 48 hrs by SRB assay; type: functional; details: NCI-H522, 48 h
[21] = Cytotoxicity against human SF268 cells assessed as growth inhibition after 48 hrs by SRB assay; type: functional; details: SF-268, 48 h
[22] = Cytotoxicity against human MDA-MB-435 cells assessed as growth inhibition after 48 hrs by SRB assay; type: functional; details: MDA-MB-435, 48 h
[23] = Cytotoxicity against human HOP62 cells assessed as growth inhibition after 48 hrs by SRB assay; type: functional; details: HOP-62, 48 h
[24] = Inhibition of sheep brain tubulin polymerization by DAPI staining-based fluorimetric method; parameters: species or system Ovis aries
[25] = Cytotoxicity against human SF539 cells assessed as growth inhibition after 48 hrs by SRB assay; type: functional; details: SF-539, 48 h
[26] = Cytotoxicity against human HCC2998 cells assessed as growth inhibition at 10 uM after 48 hrs by SRB assay relative to control; type: functional; details: HCC 2998, 48 h, read-out: GI
[27] = Cytotoxicity against human DU145 cells assessed as growth inhibition after 48 hrs by SRB assay; type: functional; details: DU-145, 48 h
[28] = Cytotoxicity against human UACC62 cells assessed as growth inhibition at 10 uM after 48 hrs by SRB assay relative to control; type: functional; details: UACC-62, 48 h, read-out: GI
[29] = Cytotoxicity against human Caki1 cells assessed as growth inhibition after 48 hrs by SRB assay; type: functional; details: CAKI-1, 48 h
[30] = Cytotoxicity against human U251 cells assessed as growth inhibition after 48 hrs by SRB assay; type: functional; details: U-251, 48 h
[31] = Cytotoxicity against human SN12C cells assessed as growth inhibition after 48 hrs by SRB assay; type: functional
[32] = Cytotoxicity against human A498 cells assessed as growth inhibition after 48 hrs by SRB assay; type: functional; details: A498, 48 h
[33] = Cytotoxicity against human SK-MEL-28 cells assessed as growth inhibition at 10 uM after 48 hrs by SRB assay relative to control; type: functional; details: SK-MEL-28, 48 h, read-out: GI
[34] = Cytotoxicity against human OVCAR4 cells assessed as growth inhibition after 48 hrs by SRB assay; type: functional; details: OVCAR-4, 48 h
[35] = Cytotoxicity against human MALME-3M cells assessed as growth inhibition after 48 hrs by SRB assay; type: functional

SMILES: COc1ccc(CN2c3ccccc3CCc3ccccc32)cc1F
- GI50 [1]: 572 nM
- GI50 [2]: 820 nM
- GI50 [3]: 732 nM
- GI50 [4]: 554 nM
- GI50 [5]: 1900 nM
- GI50 [6]: 804 nM
- GI50 [7]: 399 nM
- GI50 [8]: 604 nM
- inhibition of growth at 10 µM [9]: 61%
- GI50 [10]: 8900 nM
- GI50 [11]: 463 nM
- GI50 [12]: 413 nM
- GI50 [13]: 1550 nM
- GI50 [14]: 402 nM
- GI50 [15]: 277 nM
- GI50 [16]: 515 nM
- GI50 [17]: 387 nM
- GI50 [18]: 487 nM
- GI50 [19]: 335 nM
- GI50 [20]: 609 nM
- GI50 [21]: 660 nM
- GI50 [22]: 187 nM
- GI50 [23]: 529 nM
- IC50 [24]: 6400 nM
- GI50 [25]: 287 nM
- inhibition of growth at 10 µM [26]: 69%
- GI50 [27]: 481 nM
- inhibition of growth at 10 µM [28]: 75%
- GI50 [29]: 549 nM
- GI50 [30]: 496 nM
- GI50 [31]: 1950 nM
- GI50 [32]: 339 nM
- inhibition of growth at 10 µM [33]: 49%
- GI50 [34]: 868 nM

SMILES: COc1ccc(CN2c3ccccc3Sc3ccccc32)cc1O
- GI50 [1]: 838 nM
- GI50 [2]: 14400 nM
- GI50 [3]: 471 nM
- GI50 [35]: 12200 nM
- GI50 [4]: 642 nM
- GI50 [5]: 12700 nM
- GI50 [6]: 682 nM
- GI50 [7]: 531 nM
- GI50 [8]: 1560 nM
- GI50 [10]: 422 nM
- GI50 [11]: 407 nM
- GI50 [12]: 386 nM
- GI50 [13]: 378 nM
- GI50 [14]: 365 nM
- GI50 [15]: 180 nM
- GI50 [16]: 411 nM
- GI50 [18]: 933 nM
- GI50 [19]: 789 nM
- GI50 [20]: 241 nM
- GI50 [21]: 966 nM
- GI50 [22]: 234 nM
- GI50 [23]: 384 nM
- IC50 [24]: 9200 nM
- GI50 [25]: 270 nM
- GI50 [27]: 374 nM
- GI50 [29]: 472 nM
- GI50 [30]: 427 nM
- GI50 [31]: 1290 nM
- GI50 [32]: 2710 nM
- GI50 [34]: 726 nM

SMILES: COc1ccc(CN2c3ccccc3Sc3ccccc32)cc1F
- GI50 [1]: 579 nM
- GI50 [3]: 757 nM
- GI50 [4]: 468 nM
- GI50 [6]: 499 nM
- GI50 [7]: 309 nM
- GI50 [8]: 1220 nM
- inhibition of growth at 10 µM [9]: 55%
- GI50 [10]: 1130 nM
- GI50 [11]: 354 nM
- GI50 [12]: 377 nM
- GI50 [13]: 612 nM
- GI50 [14]: 369 nM
- GI50 [15]: 204 nM
- GI50 [16]: 428 nM
- GI50 [17]: 419 nM
- GI50 [18]: 459 nM
- GI50 [19]: 299 nM
- GI50 [20]: 300 nM
- GI50 [21]: 1430 nM
- GI50 [22]: 189 nM
- GI50 [23]: 506 nM
- IC50 [24]: 20700 nM
- GI50 [25]: 330 nM
- inhibition of growth at 10 µM [26]: 82%
- GI50 [27]: 438 nM
- inhibition of growth at 10 µM [28]: 72%
- GI50 [29]: 386 nM
- GI50 [30]: 529 nM
- GI50 [31]: 575 nM
- GI50 [32]: 283 nM
- inhibition of growth at 10 µM [33]: 43%
- GI50 [34]: 7250 nM

SMILES: COc1ccc(CN2c3ccccc3Sc3ccccc32)c(F)c1
- GI50 [2]: 5050 nM
- GI50 [5]: 4390 nM
- inhibition of growth at 10 µM [9]: 53%
- GI50 [10]: 5060 nM
- GI50 [11]: 60 nM
- GI50 [12]: 40 nM
- GI50 [14]: 38 nM
- GI50 [17]: 43 nM
- GI50 [22]: 25 nM
- inhibition of growth at 10 µM [26]: 38%
- inhibition of growth at 10 µM [28]: 67%
- GI50 [31]: 10600 nM
- inhibition of growth at 10 µM [33]: 47%

SMILES: COc1ccc(CN2c3ccccc3Sc3ccccc32)c(C(F)(F)F)c1
- GI50 [1]: 9050 nM
- GI50 [3]: 807 nM
- GI50 [35]: 21000 nM
- GI50 [4]: 288 nM
- GI50 [5]: 9750 nM
- GI50 [6]: 917 nM
- GI50 [7]: 275 nM
- GI50 [8]: 666 nM
- GI50 [10]: 2000 nM
- GI50 [11]: 483 nM
- GI50 [12]: 419 nM
- GI50 [13]: 1200 nM
- GI50 [14]: 395 nM
- GI50 [15]: 241 nM
- GI50 [16]: 454 nM
- GI50 [18]: 877 nM
- GI50 [19]: 640 nM
- GI50 [20]: 314 nM
- GI50 [21]: 10900 nM
- GI50 [22]: 396 nM
- GI50 [23]: 604 nM
- GI50 [25]: 452 nM
- GI50 [27]: 2080 nM
- GI50 [29]: 1530 nM
- GI50 [30]: 431 nM
- GI50 [31]: 9730 nM
- GI50 [32]: 372 nM
- GI50 [34]: 2160 nM

From ChEMBL document CHEMBL3862012, “Methylene versus carbonyl bridge in the structure of new tubulin polymerization inhibitors with tricyclic A-rings” (Bioorg Med Chem, 2016)
